Results published in patent US7919459B2, “Use of C5a receptor antagonist in the treatment of fibrosis” (Promics Pty Limited, priority 2002, dated 2011).
Several values for one entry are separate records, joined by “and”; a condition that tells them apart may be missing. Equal entries are not always repeated.

Tests used:
[1] = tested on: bleomycin-instilled male Wistar rats; assay: Picro Sirius Red (PR) staining for collagen in lung, bleomycin-induced pulmonary fibrosis; format: in vivo, rat; settings: 18 days after bleomycin, individual rats, n = 3-4
Description: (§1) The data was analysed using the program “Sion Image”.

[2] = tested on: bleomycin-instilled male Wistar rats; assay: Hydroxyproline assay of lung, bleomycin-induced pulmonary fibrosis; format: in vivo, rat; settings: 18 days after bleomycin instillation
Description: as §1
Hydroxyproline assay was performed by the method of Christensen et al 1 (2000). Lung tissue was excised, trimmed free of surrounding conducting airways, and homogenized in 2 mls saline. A 1 ml aliquot of lung homogenate was hydrolysed in 6N HCl (0.5 ml of homogenate and 0.5 ml of 12N HCl) at 110° C. for 12 hours; 50 μl aliquots were added to 1 ml of 14% chloramine T, 10% n-propanol, and 0.5M sodium acetate, pH 6.0. After 20 min at 22° C., 1 ml of Ehrlich's solution (1M p-dimethylaminobenzaldehyde in 70% n-propanol and 20% perchloric acid) was added and allowed to incubate at 65° C. for 15 min. Absorbance was measured at 550 nm, and the amount of hydroxyproline was determined against a standard curve generated with the use of known concentrations of reagent-grade hydroxyproline.

[3] = tested on: bleomycin-instilled male Wistar rats; assay: Bleomycin-induced pulmonary fibrosis in rats: lung and body weight, histology, collagen deposition; settings: for collagen deposition in lung: acute lung inflammation; for Body weight / Left lung weight / Ratio (lung weight to body weight): 7-9 days after intra-tracheal bleomycin, PMX53 10 mg/kg p.o. daily
Description: Male Wistar rats, 6 weeks of age, were used. The rats were divided into 5 groups:
Group 1: bleomycin instillation only (n=9)
Group 2: saline instillation only (n=3)
Group 5: Untreated rats maintained in the same environment as the other groups (n=3).
Drug-treated rats were given drug for 3 days before bleomycin administration.
One intra-tracheal instillation of bleomycin at a dose of 0.5 mg/100 g (0.7 U/100 g) in 200 μl of saline was performed on Day 1, as described by Taylor et al., (2002). Rats were anaesthetized by inhalation of 5% or less halothane via a vaporizer. After a local spray of Xylocalne to prevent airway spasm, the rats were intubated and a slow injection of bleomycin or sline control was completed. The rats were then rotated gently for about 1-2 minutes to allow the solution to diffuse evenly into both lungs (Christensen et al 2000). Rats were kept in the fume cupboard until totally recovered, and then monitored for up to 18 days. Body weight, food and water intake, and respiration were monitored daily.
Respiration was elevated as follows: Score 0, normal respiration; Score 1, increased rate of breathing; and Score 2, mouth open respiration. Rats were euthanased before the end of the experimental period, if they consistently lost more than 10% bodyweight for 48 hours, had Score 2 respiration or had Score 1 respiration for 48 hours.
At the end of this period the rats were killed by exsanguination under anaesthesia, so that the lungs were clear of blood. For each rat, the left lung was immediately frozen in liquid nitrogen and stored at −20° C. for quantitative collagen analysis using hydroxyproline assay. The right lung was fully inflated and fixed with 10% formulated formalin by airway gravity fixation at a pressure of 30 cm water for 1 minute. Haematoxylin and eosin (H&E) and Picro Sirius Red (PR) staining for collagen were performed to assess collagen deposition in the lung. For quantitation of collagen stained with PR, polarized light images were converted to grey scale, and the total number of white pixels (specific for collagen) per image was determined as a percentage of the total pixel area. The procedure was applied to a total of four fields in the alveolar area and two fields in the peribronchial area and blood vessels per sample (Wang et al, 2000). The largest lobe of the right lung (from 4 lobes) in each rat was chosen. The data was analysed using the program “Sion Image”.
Data were compiled as the means±SE in the study. Tests of significance were obtained by ANOVA followed by Student-Newman-Keuls post analysis.

[4] = tested on: streptozotocin-induced diabetes in rats; settings: streptozotocin-induced diabetes in rats (Miric G, et al., 2001); cited from earlier work
[5] = tested on: L-NAME-treated male Wistar rats; assay: Isolated Langendorff heart preparation (diastolic stiffness), L-NAME rats; format: in vivo, rat
Description: The Langendorff isolated heart preparation was used to determine the diastolic stiffness of the left ventricles ex vivo. […] To assess myocardial stiffness in isolated Langendorff hearts, stress (σ, dyne/cm2) and tangent elastic modulus (E, dyne/cm2) for the […] equator of the left ventricle were calculated by assuming spherical geometry of the ventricle and considering the […] equatorial region as representative of the remaining myocardium: […] Myocardial diastolic stiffness is calculated as the diastolic stiffness constant (k, dimensionless), the slope of the linear relation between E and σ (Mirsky and […], 1973). To assess contractile function, maximal +dP/dt was calculated at a diastolic pressure of 5 mmHg. […] The negative log EC50 of the increase in either force of contraction in mN or rate of contraction in beats/min was determined from the concentration giving half-maximal responses in individual concentration-response curves. Renal function results were corrected for kidney wet weight measured at the end of the experiment.

[6] = tested on: L-NAME-treated male Wistar rats; assay: Collagen distribution and inflammatory cells in heart and kidney sections (picrosirius red image analysis), L-NAME rats; format: in vivo, rat
Description: Collagen deposition was measured by image analysis using laser confocal microscopy of picrosirius red-stained cardiac slices, as described below. […] The stained sections were analyzed with an Image Pro plus analysis program using an Olympus BH2 microscope, with results expressed as a percentage of red area in each screen. At least 4 areas were examine in each heart.

[7] = tested on: L-NAME-treated male Wistar rats; assay: Echocardiographic analysis of cardiac function, L-NAME rats; format: in vivo, rat
Description: After 4 weeks of L-NAME treatment, heart function was determined in vivo by echocardiography and in vitro using the isolated Langendorff heart preparation described below. Collagen deposition was measured by image analysis using laser confocal microscopy of picrosirius red-stained cardiac slices, as described below.
Cardiac function was estimated in vivo using echocardiography, using conventional methods.

[8] = tested on: L-NAME-treated male Wistar rats; assay: L-NAME-induced hypertension/cardiac fibrosis in rats: intake, growth, tail-cuff blood pressure, organ weights; format: in vivo, rat
Description: Male Wistar rats (8 weeks old) were obtained from the Central Animal Breeding House of The University of Queensland.
This agent was administered at a dosage of 1 mg/kg/day orally for 4 days before rats were additionally treated with nitro-L-arginine methyl ester (L-NAME) for 4 weeks, i.e. a total duration of treatment of antagonist of 32 days. L-NAME administration produces hypertension and cardiac remodelling as a result of inhibition of the production of nitric oxide (NO).
L-NAME was administered at a concentration of 400 mg/l in the drinking water for 4 weeks to give a mean daily intake of 18.7±0.4 mg L-NAME (41.4±0.8 mg/kg mean body weight). Body weight and food and water intakes were measured daily.
Systolic blood pressure was measured in selected unanaesthetised rats, using a tail-cuff method.

[9] = L-NAME rats + PMX53 1 mg/kg/day orally
[10] = L-NAME rats, echocardiographic M-mode

CC(=O)N[C@@H](Cc1ccccc1)C(=O)N[C@H]1CCCNC(=O)[C@H](CCCNC(=N)N)NC(=O)[C@H](Cc2c[nH]c3ccccc23)NC(=O)[C@@H](CC2CCCCC2)NC(=O)[C@@H]2CCCN2C1=O [PMX53, AcF-[OPdChaWR]]
PR staining ([1]; listed as Bleo + PMX53): 1.43 % of the total pixel area and 0.06 % of the total pixel area and 0.01 % of the total pixel area and 0.77 % of the total pixel area
hydroxyproline levels in the rat lungs [2]: significantly reduced
lung histology (patchy lesions), treated versus non-treated ([3]; 7-9 days after bleomycin, H&E, n=4 per group): no significant difference
collagen deposition in lung ([3]; 7-9 days after bleomycin): no significant difference
toxic lung inflammation induced by bleomycin ([3]; acute stage): failure

Cc1ccc(=O)n(-c2ccccc2)c1 [pirfenidone, 5-methyl-1-phenyl-2-(1H)-pyridone]
cardiac fibrosis and increase in cardiac stiffness [4]: can prevent and partially reverse

CC(=O)S[C@@H]1CC2=CC(=O)CC[C@]2(C)[C@H]2CC[C@@]3(C)[C@@H](CC[C@@]34CCC(=O)O4)[C@H]12 [spironolactone]
cardiac fibrosis and increase in cardiac stiffness [4]: can prevent and partially reverse

AcF-[OPdChaWR] [PMX53]
developed pressure and contractility ([5]; isolated heart): without altering
diastolic stiffness constant ([5]; left ventricle ex vivo): prevented
glomerular collagen concentrations in the kidneys ([6]; L-NAME rats): normalized
collagen deposition restricted to % of L-NAME only, kidney interstitium [6, 9]: 30%
collagen deposition restricted to % of L-NAME only, right ventricle interstitial [6, 9]: 44%
collagen deposition restricted to % of L-NAME only, right ventricle perivascular [6, 9]: 37%
collagen increase as % of the increase observed in rats treated with L-NAME only, left ventricular interstitial [6, 9]: 23%
collagen increase as % of the increase observed in rats treated with L-NAME only, left ventricular perivascular [6, 9]: 43%
inflammatory cell infiltration into left or right ventricles ([6]; following L-NAME treatment): totally prevented
E/A ratio (early to atrial mitral valve inflow rates) ([7]; L-NAME rats): significantly normalised
cardiac output ([7]; L-NAME rats): significantly normalised
diastolic volume ([7]; L-NAME rats): significantly normalised
left ventricular internal diameter in diastole [7, 10]: normalised
left ventricular wall thickness in diastole [7, 10]: normalised
any parameter measured by echocardiographic analysis ([7]; control rats): did not significantly alter
Body weight [3]: 228 + 7.583 g
Left lung weight [3]: 0.974 ± 0.132 g
Ratio (lung weight to body weight) [3]: 4.25 ± 1.07 ×10^−3
increase in systolic blood pressure of L-NAME rats ([8]; L-NAME + antagonist versus L-NAME only): 16 mmHg
left ventricular wet weight ([8]; L-NAME rats): increased
blood pressure ([8]; control rats): non-significant increase
systolic blood pressure ([8]; tail-cuff, unanaesthetised rats, day 32, L-NAME rats with or without PMX53 1 mg/kg/day orally): 176±3 mmHg

Bleomycin [reference compound]
PR staining [1]: 0.01 % of the total pixel area and 0.21 % of the total pixel area and 0.78 % of the total pixel area and 1.73 % of the total pixel area
hydroxyproline levels in the rat lungs [2]: significantly increased
Body weight [3]: 226 + 8.083 g
Left lung weight [3]: 1.004 ± 0.04 g
Ratio (lung weight to body weight) [3]: 4.47 ± 0.46 ×10^−3
lung/body weight ratio ([3]; 18 days after bleomycin instillation): did not show a significant difference
collagen deposition in lung ([3]; 7-9 days after bleomycin): significant increase
